Values quoted from earlier work as cited in patent publication US20100137247A1, “Anti-inflammatory compositions and methods” (Searete LLC, a limited liability corporation of the State …, priority 2008, published 2010).

How the values were obtained:
lethal septic shock = settings: mice
[1] = 400 mg infused over one hour, single agent
[2] = test system: proteasomal activity in cultured breast cancer cells; settings: disulfiram bound to copper

In the case of `Cl.Cl.Nc1ccccc1Oc1ccc2c(N)nsc2c1` [Example M62812, 3-amino-6-(2-aminophenoxy)-1,2-benzisothiazole dihydrochloride], the “prevention of lethal septic shock” value (lethal septic shock) is listed as “prevents lethal septic shock”.

For `CCN(CC)CCCC(C)Nc1ccnc2cc(Cl)ccc12` (stereo not shown) [Chloroquine], the “inhibition of CpG-induced Src family kinase activation or its dependent cellular responses” value (Src family kinase) is listed as “does not inhibit”.

In the case of `CCN(CC)CCCC(C)Nc1ccnc2cc(Cl)ccc12.O=P(O)(O)O.O=P(O)(O)O` (stereo not shown) [Chloroquine phosphate, 7-chloro-4-[[4-(diethylamino)-1-methylbutyl]amino]quinoline phosphate (1:2)], the tolerability of infusion [1] is listed as “without complication”.

For `CCN(CC)C(=S)SSC(=S)N(CC)CC` [Disulfiram, 1-(diethylthiocarbamoyldisulfanyl)-N,N-diethyl-methanethioamide], the proteasomal activity [2] is listed as “inhibits proteasomal activity”.
